Test results reported in patent US20230062612A1, “SAFETY SWITCHES FOR REGULATION OF GENE EXPRESSION” (Sana Biotechnology, Inc., priority 2020, published 2023).

Tests used:
Type in all cases: cell-based
[1] = tested on: EFS-CD-CD47 transduced cells; assay: Cytosine deaminase safety switch: killing of transduced iPSCs by 5-fluorocytosine; settings: 0.01-1000 μM 5-FC; increasing concentrations; FIG. 16 (middle)
Excerpt: To assess the ability of cytosine deaminase to induce cell death in an […] manner, an EFS-cytosine deaminase (CD)-CD47 bicistronic cassette was transduced into wild type iPSCs by lentiviral viral transduction (see FIG. 16, top). In this cassette, a nucleic acid encoding CD is located upstream of a nucleic acid encoding CD47. A 2A sequence located between the CD and CD47 nucleic acids to ensure the two proteins are separate following translation. An EFS promoter controls expression of CD and CD47.
EFS-CD-CD47 transduced cells and control EFS-CD transduced cells were contacted with 0.01-1000 μM concentrations of 5-fluorocytosine (5-FC) (“5FC”). Cytosine deaminase deaminates 5-FC to toxic 5-fluorouracil (5-FU), thereby killing the cells.

[2] = tested on: human CD47 fused to LID degron domain; assay: LID degron CD47 degradation in EFS-CD47-LID transduced iPSCs, flow cytometry; settings: 0-1,000 nM Shield-1 for 24 hours, increasing doses
Excerpt: In the LID system, the protein of interest (POI e.g., CD47) is fused to a LID degron domain (also referred to as “LID domain” or “LID degron”). The LID degron domain includes the FK506- and rapamycin-binding protein (FKBP) and a peptide degron (e.g., TRGVEEVAEGVVLLRRRGN) fused to the C-terminus of the FKBP (FIG. 5). […] The peptide degron is capable of binding to the FKBP active site and is not detected by cellular degradation proteins when sequestered in the active site, thus rendering it a cryptic degron. In the absence of Shield-1, a small molecule, the POI-LID fusion protein is stable. When present, Shield-1 binds tightly to FKBP, thereby displacing the peptide degron and inducing rapid degradation of the LID and any fused partner protein (e.g., CD47). […]
(§1) The EFS-CD47-LID transduced cells, EFS-CD47 transduced cells, and wild-type control cells were incubated in the presence of 0-1,000 nM of Shield-1 for 24 hours and CD47 expression was assessed using flow cytometry.

human CD47 [3] = assay: CD47 expression in control EFS-CD47 transduced and wild-type iPSCs with Shield-1
Excerpt: To assess the ability of the LID system to promote CD47 degradation, expression constructs were made containing the following expression cassettes: a) an EF1a core promoter (EFS) operably linked to a human CD47 gene fused to a nucleic acid encoding the LID degron domain (EFS-CD47-LID, see FIG. 6, top); and b) a control containing the EFS promoter operable linked to the human CD47 gene alone (EFS-CD47). iPSCs were transduced with either the EFS-CD47-LID expression cassette or control EFS-CD47 expression cassette by lentiviral transduction.
as §1

[4] = tested on: human CD47 fused to SMASH tag; assay: SMASH degron CD47 degradation in EFS-SMASH-CD47 transduced iPSCs, flow cytometry; settings: 0-10 μM asunaprevir for 48 hours, increasing doses
Excerpt: Small-molecule assisted shutoff, or SMASH, is a system using the hepatitis C virus (HCV) nonstructural protein 3 (NS3) protease and elements in the NS4A protein to effectively shut off expression of a CD47 protein fused to a SMASH-tag with clinically tested HCV protease inhibitors (FIG. 2). In the absence of protease inhibitor (asunaprevir), a cryptic degron sequence is excised, leading to an unmodified gene product. By addition of asunaprevir, the NS3 protease is inhibited, leading to the degradation of newly synthesized CD47 proteins fused to the degron sequence.
CD47 expression analysis: After incubation, cells are washed and stained with an anti-CD47 antibody conjugated to Alexa-647 (Biolegend) to detect surface expression of CD47. More specifically, 1×10^6 cells are harvested and resuspended in 100 μl cell staining-buffer (PBS, 0.1% BSA, 0.1% sodium azide) and incubated with 5 μl Alexa-Fluor 647 labelled anti-CD47 antibody for 30 min on ice. Cells are washed in cell staining buffer and subsequently analyzed by flow cytometry. […]

human CD47 [5] = assay: CD47 expression in control EFS-CD47 transduced and wild-type iPSCs with asunaprevir; settings: for expression of CD47: 0-10 μM asunaprevir for 48 hours
Method: CD47 expression analysis: After incubation, cells are washed and stained with an anti-CD47 antibody conjugated to Alexa-647 (Biolegend) to detect surface expression of CD47. More specifically, 1×10^6 cells are harvested and resuspended in 100 μl cell staining-buffer (PBS, 0.1% BSA, 0.1% sodium azide) and incubated with 5 μl Alexa-Fluor 647 labelled anti-CD47 antibody for 30 min on ice. Cells are washed in cell staining buffer and subsequently analyzed by flow cytometry.
To assess the ability of the SMASH system to promote CD47 degradation, expression constructs were made containing the following expression cassettes: a) an EF1 a core promoter (EFS) operably linked to a human CD47 gene fused to a nucleic acid encoding a SMASH tag (EFS-CD47-SMASH, see FIG. 4, top); and b) a control containing the EFS promoter operably linked to the human CD47 gene alone (EFS-CD47). iPSCs were transduced with either the EFS-SMASH-CD47 expression cassette or control EFS-CD47 expression cassette by lentiviral transduction. The EFS-SMASH-CD47 transduced cells, EFS-CD47 transduced cells, and wild-type control cells were incubated in the presence of 0-10 μM of asunaprevir for 48 hours and CD47 expression was assessed using flow cytometry, as explained above.

`Nc1nc(=O)[nH]cc1F` [5-FC, 5-fluorocytosine] was tested. Which “killing of CD47 expressing EFS-CD-CD47 transduced cells” value [1] did it give?
Its value is “observed”.

With `CC[C@H](C(=O)N1CCCC[C@H]1C(=O)O[C@H](CCc1ccc(OC)c(OC)c1)c1cccc(OCCN2CCOCC2)c1)c1cc(OC)c(OC)c(OC)c1` [Shield-1] as the molecule, how does the “reduction in CD47 expression” value [2] read?
Its value is at least 50%.

What about the “expression of CD47” value (human CD47 [3]; EFS-CD47 ("CD47 only") cells without LID, 0-1,000 nM for 24 hours) of the same molecule?
Its value is “generally unaltered”.

And the “off-target effects on CD47 expression” value (human CD47 [3]; EFS-CD47 cells, no significant CD47 knockdown, 0-1,000 nM for 24 hours)?
Its value is “no off-target effects”.

And the “expression of CD47” value (human CD47 [3]; wildtype ("WT") cells, 0-1,000 nM Shield-1 for 24 hours)?
Its value is “remained at the baseline”.

With `C=C[C@@H]1C[C@]1(NC(=O)[C@@H]1C[C@@H](Oc2ncc(OC)c3ccc(Cl)cc23)CN1C(=O)[C@@H](NC(=O)OC(C)(C)C)C(C)(C)C)C(=O)NS(=O)(=O)C1CC1` [asunaprevir] as the molecule, how does the “reduction in CD47 expression” value [4] read?
The value was at least 50%.

And the “expression of CD47” value (human CD47 [5]; EFS-CD47 ("CD47 only") cells without SMASH)?
The value was “generally unaltered”.

What about the “off-target effects on CD47 expression” value (human CD47 [5]; EFS-CD47 cells, no significant CD47 knockdown, 0-10 μM for 48 hours) of the same molecule?
The value was “no off-target effects”.

And the “expression of CD47” value (human CD47 [5]; wildtype ("WT") cells)?
The value was “remained at the baseline”.
